US20180305332A1, “Bispiperidinyl Derivatives as Liver X Receptor Beta Agonists, Compositions, and Their Use” (Merck Sharp & Dohme Corp., priority 2015, published 2018)

Legend:
[1] = target: T1, GST tagged LXRbeta LBD (ligand binding domain) (Homo sapiens, UniProt P55055); assay: LanthaScreen TR-FRET Liver X Receptor Coactivator Assay, LXR beta-LBD; format: biochemical; details: relative to reference T0901317; for EC50: Inflection Point (potency), co-activator recruitment, read-out: LXR beta IP; for Emax / LXR beta act @ max dose (%): activity at max dose (efficacy); for Emax: read-out: LXR beta act @ max dose (%)
T1 construct: purchased Invitrogen pv4658.pps
T1 sequence (P55055 222-460 limits assumed): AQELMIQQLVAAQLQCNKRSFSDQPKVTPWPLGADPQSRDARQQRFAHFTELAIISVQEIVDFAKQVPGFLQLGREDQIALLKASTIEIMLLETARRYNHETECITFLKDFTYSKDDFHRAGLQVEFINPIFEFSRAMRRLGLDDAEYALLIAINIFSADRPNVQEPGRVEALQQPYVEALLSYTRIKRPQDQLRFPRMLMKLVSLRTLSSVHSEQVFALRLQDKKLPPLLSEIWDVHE
Protocol: (§1) Potency (Inflection Point, IP) and efficacy (Emax) are evaluated via compound-induced co-activator recruitment to glutathione-S-transferase (GST) tagged LXRbeta and LXRalpha LBD (ligand binding domain) proteins in relation to reference dual agonist compound T0901317 (N-(2,2,2-Trifluoroethyl)-N-[4-[2,2,2-trifluoro-1-hydroxy-1-(trifluoromethyl)ethyl] phenyl]benzenesulfonamide) using the LanthaScreen™ TR-FRET Liver X Receptor Coactivator Assays according to manufacturer's instructions (Invitrogen catalog number pv4658.pps and pv4655). While running the LanthaScreen™ TR-FRET Liver X Receptor Coactivator Assay, LXR alpha-LBD or LXR beta-LBD was added to ligand test compounds followed by addition of a mixture of a fluorescein-labelled coactivator peptide and terbium-conjugated anti-GST antibody. After an incubation period at room temperature, TR-FRET (time-resolved fluorescence resonance energy transfer) was measured using a filter-based instrument capable of TR-FRET, e.g. PerkinElmer Envision.

[2] = target: T2, GST tagged LXRalpha LBD (ligand binding domain) (Homo sapiens, UniProt Q13133); assay: LanthaScreen TR-FRET Liver X Receptor Coactivator Assay, LXR alpha-LBD; format: biochemical; details: relative to reference T0901317; for EC50: Inflection Point (potency), co-activator recruitment, read-out: LXR alpha IP; for Emax / LXR alpha act @ max dose (%): activity at max dose (efficacy); for Emax: read-out: LXR alpha act @ max dose (%)
T2 construct: purchased Invitrogen pv4655
T2 sequence (Q13133 209-447 limits assumed): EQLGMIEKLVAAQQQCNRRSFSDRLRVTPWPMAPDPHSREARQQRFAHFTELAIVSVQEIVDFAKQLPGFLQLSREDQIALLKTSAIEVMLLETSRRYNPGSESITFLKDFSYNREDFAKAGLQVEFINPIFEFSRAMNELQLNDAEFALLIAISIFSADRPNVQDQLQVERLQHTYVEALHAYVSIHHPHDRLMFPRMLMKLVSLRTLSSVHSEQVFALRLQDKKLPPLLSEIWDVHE
Protocol: as §1

Structure (SMILES)	EC50 [1] [nM]	Emax [1] [%]	EC50 [2] [nM]	Emax [2] [%]	LXR beta act @ max dose (%) [1] [%]	LXR alpha act @ max dose (%) [2] [%]
CN(C)C(=O)c1ccc(N2CCC(C3CCN(C(=O)C(O)(C(C)(C)C)C(F)(F)F)CC3)CC2)cc1Cl (racemic) [Example A-4, 2-Chloro-4-(1′-(2-hydroxy-3,3-dimethyl-2-(trifluoromethyl)butanoyl)-[4,4′-bipiperidin]-1-yl)-N,N-dimethylbenzamide]	29	104	735	65		
CC(C)[C@@](O)(C(=O)N1CCC(C2CCN(c3ccc(C(=O)N(C)C)c(Cl)c3)CC2)CC1)C(F)(F)F (single isomer, unassigned) [Example A-2]	35	100	1030	41		
CC(C)[C@](O)(C(=O)N1CCC(C2CCN(c3ccc(C(=O)N(C)C)c(Cl)c3)CC2)CC1)C(F)(F)F (single isomer, unassigned) [Example A-3]	63	103	3550	36		
CN(C)C(=O)c1ccc(N2CCC(C3CCN(C(=O)C(O)(C(C)(C)C)C(F)(F)F)CC3)CC2)cc1Cl (single isomer, unassigned) [Example A-6, 2-Chloro-4-(1′-(2-hydroxy-3,3-dimethyl-2-(trifluoromethyl)butanoyl)-[4,4′-bipiperidin]-1-yl)-N,N-dimethylbenzamide]	24	107	626	70		
CN(C)C(=O)c1ccc(N2CCC(C3CCN(C(=O)C(O)(C(C)(C)C)C(F)(F)F)CC3)CC2)cc1Cl (single isomer, unassigned) [Example A-7, 2-Chloro-4-(1′-(2-hydroxy-3,3-dimethyl-2-(trifluoromethyl)butanoyl)-[4,4′-bipiperidin]-1-yl)-N,N-dimethylbenzamide]	62		1400		93	56
CN(C)C(=O)c1ccc(N2CCC(C3CCN(C(=O)C(O)(C4CC4)C(F)(F)F)CC3)CC2)cc1Cl (single isomer, unassigned) [Example A-8, 2-chloro-4-[1′-(2-cyclopropyl-3,3,3-trifluoro-2-hydroxypropanoyl)-4,4′-bipiperidin-1-yl]-N,N-dimethylbenzamide]	247	95	1810	60		
CN(C)C(=O)c1ccc(N2CCC(C3CCN(C(=O)C(O)(C4CC4)C(F)(F)F)CC3)CC2)cc1Cl (single isomer, unassigned) [Example A-9, 2-chloro-4-[1′-(2-cyclopropyl-3,3,3-trifluoro-2-hydroxypropanoyl)-4,4′-bipiperidin-1-yl]-N,N-dimethylbenzamide]	116		1200		110	56
CN(C)C(=O)c1ccc(N2CCC(C3CCN(C(=O)[C@](O)(c4ccccc4)C(F)(F)C(F)(F)F)CC3)CC2)cc1Cl (single isomer, unassigned) [Example A-20]	35	146	625	0		
CC[C@](O)(C(=O)N1CCC(C2CCN(c3ccc(C(=O)N(C)C)c(Cl)c3)CC2)CC1)C(F)(F)F (single isomer, unassigned) [Example A-42]	61	117	3000	67		
CN(C)C(=O)c1ccc(N2CCC(C3CCN(C(=O)[C@@](O)(c4ccccc4)C(F)(F)C(F)(F)F)CC3)CC2)cc1Cl (single isomer, unassigned) [Example A-43]	54	128	620	40		
COc1cccc([C@@](O)(C(=O)N2CCC(C3CCN(c4ccc(C(=O)N(C)C)c(Cl)c4)CC3)CC2)C(F)(F)F)c1 (single isomer, unassigned) [Example A-65]	119	100	2120	19		
COc1cccc([C@](O)(C(=O)N2CCC(C3CCN(c4ccc(C(=O)N(C)C)c(Cl)c4)CC3)CC2)C(F)(F)F)c1 (single isomer, unassigned) [Example A-66]	251	90	2480	21		
CN(C)C(=O)c1ccc(N2CCC(C3CCN(c4ccccc4C(F)(F)F)CC3)CC2)cc1Cl [Example A106, 2-chloro-N,N-dimethyl-4-{1′-[2-(trifluoromethyl)phenyl]-4,4′-bipiperidin-1-yl}benzamide]	526	91	2110	27		
CN(C)C(=O)c1ccc(N2CCC(C3CCN(C(=O)OC(C)(C)C)CC3)CC2)cc1Cl [Example A-1, tert-Butyl 1′-(3-chloro-4-(dimethylcarbamoyl)phenyl)-[4,4′-bipiperidine]-1-carboxylate]	16	106	748	76		
CC(C)CC(O)(C(=O)N1CCC(C2CCN(c3ccc(C(=O)N(C)C)c(Cl)c3)CC2)CC1)C(F)(F)F (stereo not drawn) [Example A-5, 2-chloro-4-{1′-[2-hydroxy-4-methyl-2-(trifluoromethyl)pentanoyl]-4,4′-bipiperidin-1-yl}-N,N-dimethylbenzamide]	51		869	55	113	

Second part, the compound after the results:

EC50 [1] [nM]	Emax [1] [%]	EC50 [2] [nM]	Emax [2] [%]	LXR beta act @ max dose (%) [1] [%]	LXR alpha act @ max dose (%) [2] [%]	Structure (SMILES)
89	91	1340	17			CN(C)C(=O)c1ccc(N2CCC(C3CCN(C(=O)[C@](O)(c4ccccc4)C(F)(F)C(F)(F)F)CC3)CC2)nc1Cl (single isomer, unassigned) [Example B-16]
30	130	854	39			CN(C)C(=O)c1ccc(N2CCC(C3CCN(C(=O)[C@@](O)(c4ccccc4)C(F)(F)C(F)(F)F)CC3)CC2)nc1Cl (single isomer, unassigned) [Example B-17]
284	88	3140	33			O=C(c1ccc(N2CCC(C3CCN(C(=O)[C@@](O)(c4ccccc4)C(F)(F)F)CC3)CC2)cc1Cl)N1CCCC1 (single isomer, unassigned) [Example E-19]
27	115	1100	61			CC(C)C(O)(C(=O)N1CCC(C2CCN(c3ccc(C(=O)N(C)C)c(Cl)n3)CC2)CC1)C(F)(F)F (stereo in doubt) [Example B-5, 2-chloro-6-{1′-[(2R)-2-hydroxy-3-methyl-2-(trifluoromethyl)butanoyl]-4,4′-bipiperidin-1-yl}-N,N-dimethylpyridine-3-carboxamide]
38	108	1670	46			CC(C)C(O)(C(=O)N1CCC(C2CCN(c3ccc(C(=O)N(C)C)c(Cl)n3)CC2)CC1)C(F)(F)F (stereo in doubt) [Example B-6, 2-chloro-6-{1′-[(2S)-2-hydroxy-3-methyl-2-(trifluoromethyl)butanoyl]-4,4′-bipiperidin-1-yl}-N,N-dimethylpyridine-3-carboxamide]
48	104	1970	31			CN(C)C(=O)c1ccc(N2CCC(C3CCN(C(=O)C(O)(c4ccccc4)C(F)(F)F)CC3)CC2)nc1Cl (stereo in doubt) [Example B-9, 2-chloro-N,N-dimethyl-6-{1′-[(2R)-3,3,3-trifluoro-2-hydroxy-2-phenylpropanoyl]-4,4′-bipiperidin-1-yl}pyridine-3-carboxamide]
